In patent US9249076B2, “Recyclable extractant compositions” (BUTAMAX ADVANCED BIOFUELS LLC, priority 2012, dated 2016):
Values joined by “and” are separate entries in the source; they are usually repeats but may differ in a detail not shown here. Identical values can stand only once. Each block holds one molecule with its values, some of them ahead of it.

Tests used:
[1] = Oil Stability Index (OSI), antioxidant activity in COFA, AOCS Cd 12b-92; conditions: 110° C.
Procedure: Antioxidants were added on a weight percent basis to quantities of Corn Oil Fatty Acids (CAS No. 8001-30-7) and allowed to dissolve. […] COFA samples containing undissolved antioxidants were thoroughly mixed before withdrawing samples for analysis, to ensure the samples contained the specified weight percent of antioxidant.
Samples were run and the induction periods were determined according to AOCS method Cd 12b-92. All samples were tested at 110° C.

[2] = system: gram-negative and gram-positive bacteria (e.g., Lactobacillus); conditions: cited from earlier work
[3] = system: yeast (e.g., Saccharomyces); conditions: cited from earlier work

SMILES: Cc1cc(C(C)(C)C)c(O)c(C(C)(C)C)c1 [BHT, butylated hydroxytoluene]
Activity Index ([1]; Crude COFA, dose 0.0200 Wt %): 1.42
OSI ([1]; Crude COFA, dose 0.0200 Wt %): 1.85 h
Activity Index ([1]; Crude COFA, dose 0.1998 Wt %): 2.19
OSI ([1]; Crude COFA, dose 0.1998 Wt %): 2.85 h
Activity Index ([1]; Crude COFA, dose 0.2020 Wt %): 2.11
OSI ([1]; Crude COFA, dose 0.2020 Wt %): 3 h
Activity Index ([1]; Crude COFA, dose 0.205 Wt %): 2.43 and 2.72
OSI ([1]; Crude COFA, dose 0.205 Wt %): 11.3 h and 12.65 h
Activity Index ([1]; Crude COFA, dose 0.2097 Wt %): 2.07
OSI ([1]; Crude COFA, dose 0.2097 Wt %): 2.95 h
Activity Index ([1]; Distilled COFA, dose 0.2 Wt %): 17.63
OSI ([1]; Distilled COFA, dose 0.2 Wt %): 2.35 h
Activity Index ([1]; Distilled COFA, dose 1.1 Wt %): 52.50
OSI ([1]; Distilled COFA, dose 1.1 Wt %): 7 h
Activity Index ([1]; Distilled COFA, dose 2 Wt %): 66.00
OSI ([1]; Distilled COFA, dose 2 Wt %): 8.8 h
Antimicrobial activity [2]: have antimicrobial activity
Effect on yeast [3]: does not affect yeast

SMILES: CCCCCCCCCCCCCCCC(=O)OC[C@H](O)[C@H]1OC(=O)C(O)=C1O [L-ascorbic acid 6-palmitate]
OSI ([1]; Crude COFA, dose 0.0100 Wt %): 10.05 h
OSI ([1]; Crude COFA, dose 0.0200 Wt %): 4.1 h
OSI ([1]; Crude COFA, dose 0.2000 Wt %): 25.4 h and 29.8 h
OSI ([1]; Crude COFA, dose 0.2045 Wt %): 26.4 h

SMILES: c1ccc2c(c1)Nc1ccccc1S2 [Phenothiazine]
Activity Index ([1]; Crude COFA, dose 0.2034 Wt %): 1.61
OSI ([1]; Crude COFA, dose 0.2034 Wt %): 2.3 h

SMILES: Cc1c(C)c2c(c(C)c1O)CC[C@@](C)(CCC[C@H](C)CCC[C@H](C)CCCC(C)C)O2 [a-Tocopherol]
Activity Index ([1]; Distilled COFA, dose 0.2 Wt %): 2.63
OSI ([1]; Distilled COFA, dose 0.2 Wt %): 0.35 h
Activity Index ([1]; Distilled COFA, dose 1.1 Wt %): 1.13
OSI ([1]; Distilled COFA, dose 1.1 Wt %): 0.15 h
Activity Index ([1]; Distilled COFA, dose 2 Wt %): 1.13
OSI ([1]; Distilled COFA, dose 2 Wt %): 0.15 h

Second part, led by results:

OSI ([1]; Crude COFA, dose 0.2074 Wt %): 0.95 h
SMILES: CCOc1ccc2c(c1)C(C)=CC(C)(C)N2 [Ethoxyquin]
Activity Index ([1]; Crude COFA, dose 0.2074 Wt %): 0.67

OSI ([1]; Crude COFA, dose 0.193 Wt %): 7.9 h and 5.8 h
SMILES: O=C(O)c1cc(O)c(O)c(O)c1 [Gallic acid]
Activity Index ([1]; Crude COFA, dose 0.193 Wt %): 1.70 and 1.25

OSI ([1]; Crude COFA, dose 0.2046 Wt %): 2.35 h
SMILES: Cc1c(Cc2cc(C(C)(C)C)c(O)c(C(C)(C)C)c2)c(C)c(Cc2cc(C(C)(C)C)c(O)c(C(C)(C)C)c2)c(C)c1Cc1cc(C(C)(C)C)c(O)c(C(C)(C)C)c1 [Irganox 1330]
Activity Index ([1]; Crude COFA, dose 0.2046 Wt %): 1.65

OSI ([1]; Crude COFA, dose 0.0200 Wt %): 1.75 h
OSI ([1]; Crude COFA, dose 0.2000 Wt %): 3.65 h
OSI ([1]; Crude COFA, dose 0.2082 Wt %): 3.7 h
SMILES: CC(C)(C)c1cc(O)ccc1O [TBHQ, tertiary-butylhydroquinone]
Activity Index ([1]; Crude COFA, dose 0.0200 Wt %): 1.35
Activity Index ([1]; Crude COFA, dose 0.2000 Wt %): 2.81
Activity Index ([1]; Crude COFA, dose 0.2082 Wt %): 2.60
